Results taken from the supplement of paper PMC11451515.

Test system: NOMO1
Assay: cell viability relative to DMSO control; higher = less cytotoxic
Settings: 48 h
Procedure, shortened: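 Before seeding, each leukemia line was adapted for at least four passages in each medium. NOMO1 or SEM cells (500 cells/well) and P12-Ichikawa cells (1000 cells/well) went into 1536-well plates at 5 μl, then received library compounds in DMSO by pin dosing across 11 threefold concentrations, 47 μM to 0.79 nM. Readout was CellTiter-Glo One luminescence after 48 h at 37°C, and viability is given as a per-plate percentage of DMSO wells, with cell-free wells as background.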

[1] = HPLM + 10% dialyzed FBS, 0.000781 µM
[2] = HPLM + 10% dialyzed FBS, 0.00234 µM
[3] = HPLM + 10% dialyzed FBS, 0.00702 µM
[4] = HPLM + 10% dialyzed FBS, 0.0211 µM
[5] = HPLM + 10% dialyzed FBS, 0.0632 µM
[6] = HPLM + 10% dialyzed FBS, 0.19 µM
[7] = HPLM + 10% dialyzed FBS, 0.569 µM
[8] = HPLM + 10% dialyzed FBS, 1.71 µM
[9] = HPLM + 10% dialyzed FBS, 5.12 µM
[10] = HPLM + 10% dialyzed FBS, 15.4 µM
[11] = HPLM + 10% dialyzed FBS, 46.1 µM
[12] = RPMI 5 mM glucose + 10% FBS, 0.000781 µM
[13] = RPMI 5 mM glucose + 10% FBS, 0.00234 µM
[14] = RPMI 5 mM glucose + 10% FBS, 0.00702 µM
[15] = RPMI 5 mM glucose + 10% FBS, 0.0211 µM
[16] = RPMI 5 mM glucose + 10% FBS, 0.0632 µM
[17] = RPMI 5 mM glucose + 10% FBS, 0.19 µM
[18] = RPMI 5 mM glucose + 10% FBS, 0.569 µM
[19] = RPMI 5 mM glucose + 10% FBS, 1.71 µM
[20] = RPMI 5 mM glucose + 10% FBS, 5.12 µM
[21] = RPMI 5 mM glucose + 10% FBS, 15.4 µM
[22] = RPMI 5 mM glucose + 10% FBS, 46.1 µM
[23] = RPMI 5 mM glucose + 10% dialyzed FBS, 0.000781 µM
[24] = RPMI 5 mM glucose + 10% dialyzed FBS, 0.00234 µM
[25] = RPMI 5 mM glucose + 10% dialyzed FBS, 0.00702 µM
[26] = RPMI 5 mM glucose + 10% dialyzed FBS, 0.0211 µM
[27] = RPMI 5 mM glucose + 10% dialyzed FBS, 0.0632 µM
[28] = RPMI 5 mM glucose + 10% dialyzed FBS, 0.19 µM
[29] = RPMI 5 mM glucose + 10% dialyzed FBS, 0.569 µM
[30] = RPMI 5 mM glucose + 10% dialyzed FBS, 1.71 µM
[31] = RPMI 5 mM glucose + 10% dialyzed FBS, 5.12 µM
[32] = RPMI 5 mM glucose + 10% dialyzed FBS, 15.4 µM
[33] = RPMI 5 mM glucose + 10% dialyzed FBS, 46.1 µM

CCCC(C)(COC(N)=O)COC(=O)NC(C)C (stereo not drawn)
cell viability [1]: 107% | cell viability [2]: 123% | cell viability [3]: 125% | cell viability [4]: 138% | cell viability [5]: 143% | cell viability [6]: 131% | cell viability [7]: 127% | cell viability [8]: 130% | cell viability [9]: 123% | cell viability [10]: 141% | cell viability [11]: 140% | cell viability [12]: 116% | cell viability [13]: 122% | cell viability [14]: 132% | cell viability [15]: 127% | cell viability [16]: 145% | cell viability [17]: 130% | cell viability [18]: 127% | cell viability [19]: 125% | cell viability [20]: 137% | cell viability [21]: 150% | cell viability [22]: 129%

C[C@]12Cc3cn[nH]c3C[C@@H]1CC[C@@H]1[C@@H]2CC[C@@]2(C)[C@H]1CC[C@]2(C)O
cell viability [12]: 97.1% | cell viability [13]: 102% | cell viability [14]: 100% | cell viability [15]: 105% | cell viability [16]: 106% | cell viability [17]: 103% | cell viability [18]: 109% | cell viability [19]: 112% | cell viability [20]: 100% | cell viability [21]: 92.4% | cell viability [22]: 90.7% | cell viability [23]: 102% | cell viability [24]: 119% | cell viability [25]: 122% | cell viability [26]: 120% | cell viability [27]: 114% | cell viability [28]: 105% | cell viability [29]: 103% | cell viability [30]: 92.8% | cell viability [31]: 95.3% | cell viability [32]: 109% | cell viability [33]: 96.3%

CCOc1cc2ncc(C#N)c(Nc3ccc(F)c(Cl)c3)c2cc1NC(=O)/C=C/CN(C)C
cell viability [1]: 120% | cell viability [2]: 133% | cell viability [3]: 111% | cell viability [4]: 114% | cell viability [5]: 127% | cell viability [6]: 84.9% | cell viability [7]: 80.9% | cell viability [8]: 57% | cell viability [9]: 50.8% | cell viability [10]: 42.7% | cell viability [11]: 4.8% | cell viability [12]: 118% | cell viability [13]: 128% | cell viability [14]: 116% | cell viability [15]: 124% | cell viability [16]: 123% | cell viability [17]: 118% | cell viability [18]: 102% | cell viability [19]: 85.6% | cell viability [20]: 66.2% | cell viability [21]: 76.3% | cell viability [22]: 10.4%

O=C(Nc1nnc(-c2ccco2)o1)c1cc(-c2ccccc2)nc2ccccc12
cell viability [1]: 92.3% | cell viability [2]: 103% | cell viability [3]: 117% | cell viability [4]: 124% | cell viability [5]: 118% | cell viability [6]: 120% | cell viability [7]: 114% | cell viability [8]: 114% | cell viability [9]: 65.5% | cell viability [10]: 18.7% | cell viability [11]: 6.68% | cell viability [12]: 107% | cell viability [13]: 101% | cell viability [14]: 99.9% | cell viability [15]: 105% | cell viability [16]: 100% | cell viability [17]: 101% | cell viability [18]: 93% | cell viability [19]: 111% | cell viability [20]: 98.3% | cell viability [21]: 99.3% | cell viability [22]: 13.7% | cell viability [23]: 102% | cell viability [24]: 89.3% | cell viability [25]: 107% | cell viability [26]: 96.2% | cell viability [27]: 103% | cell viability [28]: 112% | cell viability [29]: 93.4% | cell viability [30]: 117% | cell viability [31]: 118% | cell viability [32]: 106% | cell viability [33]: 13.5%

C[C@@H]1O[C@@H](O[C@H]2C[C@@H](O)[C@]3(CO)[C@H]4[C@H](O)C[C@]5(C)[C@@H](C6=CC(=O)OC6)CC[C@]5(O)[C@@H]4CC[C@]3(O)C2)[C@H](O)[C@H](O)[C@H]1O
cell viability [1]: 94.8% | cell viability [2]: 104% | cell viability [3]: 99% | cell viability [4]: 81.8% | cell viability [5]: 32.9% | cell viability [6]: 14.5% | cell viability [7]: 9.66% | cell viability [8]: 8.1% | cell viability [9]: 8.19% | cell viability [10]: 8.12% | cell viability [11]: 6.11% | cell viability [12]: 93.1% | cell viability [13]: 95.2% | cell viability [14]: 109% | cell viability [15]: 110% | cell viability [16]: 95.3% | cell viability [17]: 39.6% | cell viability [18]: 13.6% | cell viability [19]: 8.12% | cell viability [20]: 8.09% | cell viability [21]: 7.5% | cell viability [22]: 5.41% | cell viability [23]: 97.8% | cell viability [24]: 109% | cell viability [25]: 103% | cell viability [26]: 117% | cell viability [27]: 73.2% | cell viability [28]: 30% | cell viability [29]: 11.3% | cell viability [30]: 6.76% | cell viability [31]: 6.52% | cell viability [32]: 6.15% | cell viability [33]: 5.29%

CC(=O)OC[C@H]1O[C@@H]([S-])[C@H](OC(C)=O)[C@@H](OC(C)=O)[C@@H]1OC(C)=O.CCP(CC)CC.[Au+]
cell viability [1]: 80.7% | cell viability [2]: 84.3% | cell viability [3]: 96.5% | cell viability [4]: 92% | cell viability [5]: 75.9% | cell viability [6]: 93.7% | cell viability [7]: 96.7% | cell viability [8]: 93.8% | cell viability [9]: 31.5% | cell viability [10]: 7.92% | cell viability [11]: 5.33% | cell viability [12]: 86.7% | cell viability [13]: 99.2% | cell viability [14]: 85.4% | cell viability [15]: 96.4% | cell viability [16]: 98.4% | cell viability [17]: 104% | cell viability [18]: 106% | cell viability [19]: 89.8% | cell viability [20]: 18.8% | cell viability [21]: 6.15% | cell viability [22]: 5% | cell viability [23]: 88.3% | cell viability [24]: 96.7% | cell viability [25]: 90.5% | cell viability [26]: 96.2% | cell viability [27]: 91.7% | cell viability [28]: 94.5% | cell viability [29]: 95.4% | cell viability [30]: 88.7% | cell viability [31]: 40.8% | cell viability [32]: 5.52% | cell viability [33]: 4.43%

CN(C)C1=CC(=CC=C1)C\2=C\3C(=O)N(NC3=C/C(=O)N2C)C4=CC=CC=C4Cl
cell viability [1]: 113% | cell viability [2]: 109% | cell viability [3]: 127% | cell viability [4]: 116% | cell viability [5]: 120% | cell viability [6]: 105% | cell viability [7]: 60.4% | cell viability [8]: 7.34% | cell viability [9]: 5.72% | cell viability [10]: 4.4% | cell viability [11]: 5.35% | cell viability [12]: 118% | cell viability [13]: 105% | cell viability [14]: 122% | cell viability [15]: 121% | cell viability [16]: 116% | cell viability [17]: 103% | cell viability [18]: 93% | cell viability [19]: 19.7% | cell viability [20]: 5.29% | cell viability [21]: 5.8% | cell viability [22]: 5.56% | cell viability [23]: 118% | cell viability [24]: 108% | cell viability [25]: 114% | cell viability [26]: 116% | cell viability [27]: 143% | cell viability [28]: 112% | cell viability [29]: 83.4% | cell viability [30]: 28.3% | cell viability [31]: 10.1% | cell viability [32]: 7.91% | cell viability [33]: 8.18%
